In one data set the test system is E. coli BL21 cells. Nature of the data set: Headspace SPME GC-MS of E. coli cultures expressing ShMKS2 or SlMKS2. The data set is classed as cell-based, Escherichia coli. The note with it: IPTG induction, overnight growth. The method, then: To investigate the biochemical activity of MKS2, the full ORFs of the wild-species allele (ShMKS2) and the cultivated allele (SlMKS2) were amplified and ligated into an E. coli expression vector (see Examples, Materials and Methods). These vectors were introduced into E. coli BL21cells and ShMKS2 or SlMKS2 expression was induced by the addition of IPTG (see Examples, Materials and Methods). After induction and overnight growth, the culture was analyzed by solid-phase microextraction (SPME) of its headspace followed by gas chromatography-mass spectrometry (GC-MS; see Examples, Materials and Methods). The major compound in the headspace of the E. coli cells expressing ShMKS2 was identified as 2TD (FIG. 8A). Lower amounts of 2UD and 2-pentadecanone were also detected, as well as the reduced alcohol forms of 2UD and 2TD (i.e., 2-undecanol and 2-tridecanol). […] The headspace also contained 2-nonanol and 2-undecanol (FIG. 8B). However, the major headspace compound produced by SlMKS2-expressing cells eluted slightly later than 2TD (peak labeled “1” in FIG. 8B, and also present at lower levels in the chromatograph in FIG. 8A).
The sequence of these cDNAs was verified and transferred into the E. coli expression vector pHis9GW following Auldridge et al. (submitted). The pHis9GW vectors carrying ShMKS2 or SlMKS2 were mobilized into E. coli […] cells, and gene expression was induced by the addition of 2 mM IPTG after the culture OD595 value had reached 0.6-0.7. After IPTG addition, ShMKS2- and SlMKS2-expressing bacterial cells were grown at 30° C. or 18° C. overnight.
After induction with IPTG and growth overnight, 1 mL of culture was placed in a glass vial at 42° C. The vial was capped with a screw cap in which a small hole had been bored. The needle of a SPME device was inserted into the vial through the hole in the cap and the fiber extended for 30 min. for volatile collection, after which the fiber was withdrawn and then injected into the GC. […]

The next data set concerns E. coli cells. As to the kind of experiment: GC-MS of methylketones in spent media of E. coli cells expressing ShMKS1, ShMKS2 or ShMKS2 (D79A). The data set is classed as cell-based, Escherichia coli. The procedure: To test if expression of either ShMKS1 or ShMKS2 (without its transit peptide) in E. coli results in the formation of 3-ketoacids, we collected spent media of bacterial cells expressing each of them (by centrifuging out the cells at the end of the incubation period), heated the spent media at 75° C. for 30 min in the presence of 1 M sulfuric acid, extracted with hexane, then injected the hexane fraction in a GC-MS. […] On the other hand, the spent medium of E. coli cells expressing ShMKS2 contained 5.6±0.32 μg/μL of total methylketones, and the amount of methylketones increased […], to 40.7±2.1 μg/μL, after the spent medium was treated with acid and heat (FIG. 17).
The coding regions of ShMKS1 and ShMKS2 (minus the transit peptide-encoding region) were each amplified by PCR and inserted into the E. coli expression vector pEXP-TOPO-CT (Invitrogen). The expression vectors were introduced into E. coli BL21 Star (DE3) cells, and gene expression was induced by the addition of 0.5 mM IPTG after the culture optical density at 600 nm had reached 0.65. After induction with IPTG and growth at 18° C. overnight, the cells expressing ShMKS1 or ShMKS2 were centrifuged at 5000 rpm for 15 minutes, and 1-mL aliquots of the spent medium were placed in individual vials for further analysis.
Aliquots (1 mL) of the spent medium of E. coli expressing ShMKS2, obtained by centrifuging the culture solution after the incubation time at 5,000 rpm for 15 min and collecting the solution without the cells, were treated in the following ways: 1. Incubated with 40 μl (3 μg) of purified MKS1 in phosphate buffer (12.5 mM NaH2PO4, 125 mM NaCl, 2 mM DTT, pH 6.8) for 2 hrs at 30° C. 3. Incubated at 75° C. for 30 min followed by 30 min at 30° C. 4. Incubated with 1 mL of 2M H2SO4 at 75° C. for 30 min followed by 30 min at 30° C. After the various treatments, 1 mL of hexane containing 5 ng/μL linalool as an internal standard was added and the resulting mixture was vortexed and centrifuged at 5000 rpm for 10 min. Two μL of the resulting extract were injected into the GC-MS for determination of methylketones. GC-MS and product analysis were performed as described by Ben-Israel et al, (2009) Multiple biochemical and morphological factors underlie the production of methylketones in tomato trichomes, Plant Physiology 151: 1952-1964.

A short description of data set [1]: In vitro decarboxylase activity assay. The data set is classed as biochemical. The note with it: substrate 3-ketomyristic acid. The method, then: To examine the possible decarboxylase activity of ShMKS1 as well as ShMKS2 in vitro, we tested homogenous recombinant ShMKS1 and partially purified recombinant ShMKS2 proteins (without their transit peptides) for their ability to convert 3-ketomyristic acid into its 2-tridecanone decarboxylated product. […] In steady-state kinetic assays, ShMKS1 was determined to have a KM of 18.4±5.6 μM for 3-ketomyristic acid, with an apparent kcat of 227.9±24.1 min^−1.
A typical decarboxylase assay consisted of a 500 μL reaction solution containing ShMKS1 or ShMKS2 (2.5 μg), 3-ketomyristic acid (0.1 mM), and 1,3-bis(tris(hydroxymethyl)methylamino) propane—Na^+ (20 mM, pH 7.0). For measuring kinetic parameters, substrate concentrations ranged from 5 μM to 75 μM. Assays were performed at 23° C. for 10 min after addition of protein. […] Reaction products (5 μL) were analyzed by a modified procedure, as described in O'Maille et al (2004) A single-vial analytical and quantitative gas chromatography-mass spectrometry assay for terpene synthases. […] Product quantification was performed using total ion monitoring (TIM) mode where all ions in the mass spectrum contribute to the measured response. […] 2-Tridecanone was quantified by integration of peak areas using Enhanced Chemstation (version B.01.00, Agilent Technologies). […]

The next data set concerns 3-ketomyristoyl-ACP. Nature of the data set: In vitro thioesterase activity assay. Conditions: 2.5 μg protein, 30 min at 23° C., then acid and heat. The class given is biochemical. The method, then: To examine the potential thioesterase activity of ShMKS1 and ShMKS2 in vitro, we added 2.5 μg of each protein to a 500 μL solution of freshly prepared 3-ketomyristoyl-ACP. This protein-linked substrate was prepared using a sequential in vitro enzymatic system involving the addition of multiple starting materials and enzymes and the reaction allowed to proceed for 5 hr (see Examples, Materials, and Methods). Due to the highly unstable nature of 3-ketomyristoyl-ACP, this compound was not further purified but instead the solution in which it was synthesized was used as the “substrate solution” for qualitative in vitro thioesterase activity assays.
Aliquots of this substrate solution were incubated with buffer, ShMKS1, ShMKS2, or both ShMKS1 and ShMKS2 for 30 min at 23° C. […]
3-Ketomyristoyl-ACP was synthesized in a 500 μL reaction volume containing 1,3-bis(tris(hydroxymethyl)methylamino) propane (20 mM, pH 7.0), malonyl-CoA (0.2 mM), lauroyl-CoA (0.2 mM), ShACP (0.1 mM), EcFabD (10 μg) and MtFabH (10 μg). […] Hexane extracts were analyzed by GC-MS as described above. The values for heat-treated samples shown in FIG. 20 were corrected for loss of methylketones during the heating step, as determined by comparisons with standards.

[2] abbreviates: combined heat and acid treatment.
The mark [3] stands for this setting: heated at 75° C. for 30 min, no sulfuric acid.

In the case of “ShMKS2: methylketone synthase 2 from Solanum habrochaites glabratum (SEQ ID NO: 4 / 25); thioesterase hydrolyzing 3-ketoacyl-ACPs”, the “major compound in the headspace of E. coli cells expressing the enzyme” value with E. coli BL21 cells is on record as 2TD. Further, the “increase of amount of methylketones after acid and heat treatment” value with E. coli cells (acid and heat treated vs untreated spent medium) was 8 fold. Besides, the “total methylketones in spent medium” value in the data set on E. coli cells (after spent medium was treated with acid and heat (1 M sulfuric acid, 75° C., 30 min)) was determined as 40.7 ± 2.1 µg/µL. In addition, in the data set with E. coli cells (setting [2]), the “2-nonanone in spent medium” value came out at 0.95 ± 0.04 µg/µL; the “2-nonanone, fold over non-treated control” value stood at 19.1 fold; the “2-pentadecenone in spent medium” value worked out at 5.69 ± 0.21 µg/µL; the “2-pentadecenone, fold over non-treated control” value is listed as 4.4 fold. In the data set with E. coli cells (setting [2]), the “2-tridecanone in spent medium” value amounted to 11.99 ± 0.51 µg/µL; the “2-tridecanone, fold over non-treated control” value amounted to 4.6 fold; the “2-tridecenone in spent medium” value worked out at 13.04 ± 0.63 µg/µL; the “2-tridecenone, fold over non-treated control” value was 11.8 fold. In the data set with E. coli cells (setting [2]), the “2-undecanone in spent medium” value amounted to 9.33 ± 0.61 µg/µL and the “2-undecanone, fold over non-treated control” value was determined as 18.3 fold. Further, in the data set on E. coli cells (heat only), the “2-nonanone, fold over non-treated control” value is given as 11.9 fold; the “2-pentadecenone, fold over non-treated control” value is 3.0 fold; the “2-tridecanone, fold over non-treated control” value worked out at 3.7 fold; the “2-tridecenone, fold over non-treated control” value came to 9 fold. Moreover, the “2-undecanone, fold over non-treated control” value with E. coli cells (heat only) came to 12.2 fold. In addition, in the data set with E. coli cells (setting [3]), the “2-nonanone in spent medium” value was 0.60 ± 0.05 µg/µL, the “2-pentadecenone in spent medium” value amounted to 3.94 ± 0.54 µg/µL, the “2-tridecanone in spent medium” value turned out to be 9.61 ± 0.27 µg/µL and the “2-tridecenone in spent medium” value is 9.94 ± 0.83 µg/µL. In the data set on E. coli cells (setting [3]), the “2-undecanone in spent medium” value turned out to be 6.22 ± 0.34 µg/µL. In addition, in the data set with E. coli cells (untreated spent medium), the “2-nonanone in spent medium” value came out at 0.05 µg/µL, the “2-pentadecenone in spent medium” value is 1.3 µg/µL, the “2-tridecanone in spent medium” value amounted to 2.6 µg/µL and the “2-tridecenone in spent medium” value stood at 1.1 µg/µL. In the data set with E. coli cells (untreated spent medium), the “2-undecanone in spent medium” value came to 0.51 µg/µL and the “total methylketones in spent medium” value amounted to 5.6 ± 0.32 µg/µL. Besides, the “decarboxylase activity” value in data set [1] was “no decarboxylase activity”. For the same substance, the “amount of 2-tridecanone formed vs buffer-incubated substrate solution treated with acid and heat” value in the data set with 3-ketomyristoyl-ACP is “approximately 3 fold”.

As to “SlMKS2: methylketone synthase 2, cultivated tomato S. lycopersicum allele (SEQ ID NO: 3)”, in the data set with E. coli BL21 cells, the “major compound in the headspace of E. coli cells expressing the enzyme” value was 2-tridecenone and the “two main MK in the headspace” value is given as 2UD as well as 2-nonanone.

For the origin of these results see patent publication US20110289632A1, “METHYLKETONE SYNTHASE, PRODUCTION OF METHYLKETONES IN PLANTS AND BACTERIA” (The Regents of the University of Michigan, priority 2009, published 2011).
